Eight molecules from patent US9572802B2 (Theravance Respiratory Company, LLC, priority 2009, dated 2017) can be followed below.

Counter-ions that a name gives are not always drawn. Some results are limits rather than exact numbers.

The first test relates to methacholine (MCh)-induced bronchoconstriction. The test is described as follows: Rat Einthoven assay: bronchoprotection against methacholine (MCh)-induced bronchoconstriction. Format: in vivo. The settings on record: 100 μg by inhalation, bronchoprotective effect present. The procedure:
This assay measures the ability of a test compound to provide bronchoprotection against methacholine (MCh)-induced bronchoconstriction in a rat. Male Sprague-Dawley rats (Harlan, Indianapolis, Ind.), weighing between 200 g and 350 g, were used for all studies. Test compound or vehicle (sterile deionized water) were dosed by inhalation (1H) over a 10 min period in a pie shaped inhalation chamber (R+S Molds, San Carlos, Calif.) using 5 mL of dosing solution. […] Rats were dosed with 100 μg of test compound unless otherwise indicated. At predetermined time points, rats were anesthetized with all intraperitoneal (IP) injection of 120 mg/kg inactin (thiobutabarbital). A supplemental dose (40 mg/kg, IP) was administered if the animal responded to physical stimuli (e.g. toe pinch). The surgical site was shaved and a 1-2 cm midline incision of the ventral aspect of the neck was made. The jugular vein was isolated and cannulated with a saline-filled polyethylene catheter (PE-50) to allow IV infusion of MCh. Trachea was dissected free and cannulated with a 14G needle (#NE-014, Small Parts, Miami Lakes, Fla.). After placement of the tracheal cannula, each rat was ventilated using a respirator (Model 683, Harvard Apparatus, Inc., Mass.) set at a stroke volume of 1 mL/100 g body weight (but not exceeding 2.5 mL volume) and a rate of 90 strokes per minute. A T-connector was placed along the respirator expiratory tubing to allow for measurement of changes in ventilation pressure (VP) using a Biopac transducer that was connected to a Biopac […]) pre-amplifier. Body temperature was maintained at 37° C. using a heating pad. Changes in VP were recorded using the Acknowledge Data Collection Software (Santa Barbara, Calif.). Baseline values were collected for at least 2.5 min. Rats were then challenged with non-cumulative intravenous (IV) infusions of 40 and 80 μg/kg MCh. MCh was infused intravenously for 2.5 minutes from a syringe pump (sp210iw, World Precision Instruments, Inc., Sarasota, Fla.) at a rate of 2 mL/kg/min, with a 2 minute interval between the two doses of MCh. Changes in ventilation pressure (cm H2O) in treated animals are expressed as % inhibition of MCh response relative to control animals. Other bronchoconstrictors, such as histamine and acetylcholine, can be used in place of MCh in this assay. Additonally, guinea pigs can be used instead of rats. […] Inhibition greater than or equal to 30 percent at 24 h is indicative of a long duration of action.
Turning to `CN(CCCC(=O)Nc1cccc(CCNC[C@H](O)c2ccc(O)c3[nH]c(=O)ccc23)c1)C(=O)CCN1CCC(OC(=O)Nc2ccccc2-c2ccccc2)CC1` [Compound I-7, Biphenyl-2-ylcarbamic Acid 1-(2-{[3-(3{2-[(R)-2-Hydroxy-2-(8-hydroxy-2-oxy-1,2-dihydroquinolin-5-yl)ethylamino]ethyl}phenylcarbamoyl)-propyl]methylcarbamoyl}ethyl)piperidin-4-yl Ester Ditrifluoroacetic Acid Salt], the “Broncho. at 24 h” value was “Yes (Bronchoprotective effect present at 24 h, e.g., ≧30% inhibition of the MCh response at 24 h in the rat Einthoven assay (100 μg))”.
In the case of `CC(Cc1cccc(CC(=O)NCCCCN(C)C(=O)CCN2CCC(OC(=O)Nc3ccccc3-c3ccccc3)CC2)c1)NC[C@H](O)c1ccc(O)c2[nH]c(=O)ccc12` (stereo in doubt) [Compound I-23, Biphenyl-2-ylcarbamic acid 1-[2-({4-[2-(3-{(R)-2-[(R)-2-hydroxy-2-(8-hydroxy-2-oxo-1,2-dihydroquinolin-5-yl)ethylamino]propyl}phenyl)acetylamino]butyl}methylcarbamoyl)ethyl]piperidin-4-yl ester ditrifluoroacetic acid salt], the “Broncho. at 24 h” value is “Yes (Bronchoprotective effect present at 24 h, e.g., ≧30% inhibition of the MCh response at 24 h in the rat Einthoven assay (100 μg))”.
With `CN(C(=O)CCN1CCC(OC(=O)Nc2ccccc2-c2ccccc2)CC1)c1cccc(CC(=O)Nc2cccc(CCNC[C@H](O)c3ccc(O)c4[nH]c(=O)ccc34)c2)c1` [Compound I-62, ditrifluoroacetic acid salt], the “Broncho. at 24 h” value is recorded as “Yes (Bronchoprotective effect present at 24 h, e.g., ≧30% inhibition of the MCh response at 24 h in the rat Einthoven assay (100 μg))”.
Regarding `Cc1cc(CNC[C@H](O)c2ccc(O)c3[nH]c(=O)ccc23)ccc1NC(=O)CCCN(C)C(=O)CCN1CCC(OC(=O)Nc2ccccc2-c2ccccc2)CC1` [Compound I-2, Biphenyl-2-ylcarbamic acid 1-(2-{[3-(4-{[(R)-2-hydroxy-2-(8-hydroxy-2-oxo-1,2-dihydroquinolin-5-yl)ethylamino]methyl}-2-methylphenylcarbamoyl)propyl]methylcarbamoyl}ethyl)piperidin-4-yl ester ditrifluoroacetic acid salt], the “Broncho. at 24 h” value is reported as “No”.
On to `C[C@H](Cc1cccc(CC(=O)NCCCN(C)C(=O)CCN2CCC(OC(=O)Nc3ccccc3-c3ccccc3)CC2)c1)NC[C@H](O)c1ccc(O)c2[nH]c(=O)ccc12` [Compound I-12, Biphenyl-2-ylcarbamic acid 1-[2-({3-[2-(3-{(R)-2-[(R)-2-hydroxy-2-(8-hydroxy-2-oxo-1,2-dihydroquinolin-5-yl)ethylamino]propyl}phenyl)acetylamino]propyl}methylcarbamoyl)ethyl]piperidin-4-yl ester ditrifluoroacetic acid salt], for which the “Broncho. at 24 h” value is on record as “No”.
Turning to `C[C@@H](Cc1cccc(CC(=O)NCCCN(C)C(=O)CCN2CCC(OC(=O)Nc3ccccc3-c3ccccc3)CC2)c1)NC[C@H](O)c1ccc(O)c2[nH]c(=O)ccc12` [Compound I-13, Biphenyl-2-ylcarbamic Acid 1[2-({3-[2-(3-{(S)-2-[(R)-2-Hydroxy-2-(8-hydroxy-2-oxo-1,2-dihydroquinolin-5-yl)ethylamino]propyl}phenyl)acetylaminol]-propyl}methylcarbamoyl)ethyl]piperidin-4-yl Ester Ditrifluoroacetic Acid Salt], the “Broncho. at 24 h” value was “Yes (Bronchoprotective effect present at 24 h, e.g., ≧30% inhibition of the MCh response at 24 h in the rat Einthoven assay (100 μg))”.
As to `Cc1ccc(C(=O)Nc2ccc(CC(C)NC[C@H](O)c3ccc(O)c4[nH]c(=O)ccc34)cc2)cc1N(C)C(=O)CCN1CCC(OC(=O)Nc2ccccc2-c2ccccc2)CC1` (stereo partly drawn) [Compound I-41, Biphenyl-2-ylcarbamic acid 1-(2-{[5-(4-{2-[(R)-2-hydroxy-2-(8-hydroxy-2-oxo-1,2-dihydroquinolin-5-yl)-ethylamino]propyl}phenylcarbamoyl)-2-methylphenyl]-methylcarbamoyl}ethyl)piperidin-4-yl ester], the “Broncho. at 24 h” value is given as “No”.

The test is the same for the next values; noted with them: inhaled or nasal, 100 μg by inhalation, 24 h, bronchoprotective effect present, read-out: Broncho. at 24 h.
Turning to `CN(C(=O)CCN1CCC(OC(=O)Nc2ccccc2-c2ccccc2)CC1)c1cccc(C(=O)Nc2ccc(CNC[C@H](O)c3ccc(O)c4[nH]c(=O)ccc34)cc2)c1` [Compound I-25], the inhibition in vivo at 0.1 mg is more than 30%.
